One data set concerns the target T1, human CB2R (Homo sapiens, UniProt P34972).
T1 construct: purchased PerkinElmer; Charles River RBXCB2M400UA; A618
Nature of the data set: Radioligand competition displacement binding, [3H]CP-55,940, membranes with human CB2R. Conditions: [3H]CP-55,940 displacement, read-out: CB2R hKi. On the procedure: BNS compounds’ binding to CB1R and CB2R was assessed in competition displacement assays using [^3H]CP-55,940 as the radioligand and crude membranes from mouse brain or human cells overexpressing the CB1R or CB2R. All data were in triplicates with Ki values determined from three independent experiments. See SI for a detailed procedure.
Supplementary Experimental Methods […]
CB1R and CB2R binding. Binding to the CB1R/CB2R was asse ss ed using competition displacement as says with [ 3H] CP -55,940 as the radioligand. Purified membranes from the mouse brain were utilized for CB1R assessment (as described above). Purified […]
membranes from cells overexpressing human CB2R ( Char les River CAT # A618) w e r e employed for CB2R evaluation. […]
Radioligand binding assays were performed to asse ss the binding affinity of the different compounds to hCB1R (RBHCB1M4 00UA; Per kinElmer) or hCB 2R
(RBXCB2 M400UA; PerkinElmer). Competition displacement as says w ere employed, […]
utilizing [3H] C P -55,940 as the radioligand and crude membranes from humans for CB1 R or CB2 R. T he compounds were tested at various concentrations (eight points with a five-fold serial dilution starting at two m M) , and their ability to displace [3H] CP - 55, 940 was evaluated. Upon completion of the binding assays, the reaction mixture was filtered through GF/C plates, followed by four washes with cold wash buffer. After drying for one hour, 50 μL of Perkin Elmer Microscint 20 cocktail was added to the filter plate wells, and the bound [3H] C P -55,940 radioligand was measured using a β counter. All data points were duplicated, and Ki values were determined from two independent experiments using GraphPad Prism 7.02 analysis software, extracted through nonlinear regression analysis. […]
MgCl 2. The tissue was homogenized using a glass -Teflon and Hei-T ORQUE 200 homogenizer (Heidolph; Cat#17- 012- 002- 25 -1) set to 132 rpm. The resulting suspen sion underwent centrifugation at 48,000 × g for 20 min at four °C, and the supernatant was discarded. The pellet obtained was homogenized again and subjected to a second centrifugation under the same conditions. Subsequently, the resulting pellet […]
mM EGTA, 9 mM MgCl 2, and 150 mM NaCl, followed by homogenization. The protein concentration of the suspension was determined using the BCA assay, and the suspen sion was diluted to a final concentration of 2 mg/mL in assay buffer. The prepared suspension was aliquoted on ice and stored at - 80 °C for further use.
(In a radioligand displacement assay an active substance lowers the binding of a labelled ligand.)

Another data set has as its target P-gp (MDR1) (Homo sapiens, UniProt P08183). Nature of the data set: Bidirectional permeability in MDR1-MDCKII cells with and without GF120918. Conditions: dog; for Papp A→B at 2.5 h / Papp B→A at 2.5 h / efflux ratio at 2.5 h: MDCK-MDR1. On the procedure: (§1) MDR1-MDCKII cells were seeded onto […] (PET) in a 96-well insert system. Test and reference compounds were administered to the apical (A-to-B) and basolateral (B-to-A) sides of the cell monolayer. Permeation of the compounds in both directions was assessed, with and without a P-glycoprotein (P-gp) inhibitor (GF120918). […] After a 2.5-h incubation period, each compound’s permeability and efflux ratio were calculated as described in the SI. […]
(§2) Bidirectional permeability assessment in MDR1-MDCK cells. Test and reference compounds were quantified using LC -MS/MS ana lysis based on th e peak ar ea r atio of analyte to internal standard (IS). T he apparent permeability coefficient (Papp) in cm/s was computed using the equation: Pa pp = (dCr/d t ) × V r / ( A × C 0), where dCr/ d t […]
(§3) represents the cumulative concentration of the compound in the receiver chamber over time (µM/s), Vr is the solution volume in the receiver chamber (0.075 mL on the apical side, 0.25 mL on the basolateral side), A is the surface area for transport (0.0804 cm2 f or the monolayer ar ea), and C0 is the initial concentration in the donor chamber ( µM) .
(§4) The efflux ratio was determined using the equation Efflux Ratio = P a pp ( B:
(§5) A ) / Pa pp (A: B) . […]
(§6) Additionally, the percent of lucifer yellow in the basolateral well was calculated using the equation:
(§7) Lucif er yellow = VV bbbbbbbbbbbbbbbbbbbb ×RR FFFF bbbbbbbbbbbbbbbbbbbb ×100 VV bbaaaaaa bbbb ×RRRRRR bbaaaaaa bbbb+VV bbbbbbbbbbbbbbbbbbbb ×RRFFFF bbbbbbbbbbbbbbbbbbbb wher e RFUApical and RFUBasolateral demote the r elative f luor escence unit values of lucif er yellow in the apical and basolateral wells, respectively, and VApical and VBasolateral represent the volumes of apical and basolateral wells (0.075 mL and 0.25 mL, r espectively) . T he % Lucif er Yellow should be less than 2, indicating minimal leakage. […]

The next data set concerns the target P-gp (MDR1-MDCKII cells) (Homo sapiens, UniProt P08183). Described as above. The note with it: for P-gp substrate: MDR1-MDCKII cells; for Rank Papp: MDR1-MDCKII permeability rank. As for the experimental part:
as §1, §2, §3, §4, §5, §6, §7

In the next data set the test system is C57BL/6J mice. Nature of the data set: Assessment of centrally mediated hyperactivity (locomotor activity). The data set is classed as in vivo, mouse. On the procedure: The activity profiles of the mice were evaluated using the Promethion High-Definition Behavioral Phenotyping System (Sable Instruments, Inc., Las Vegas, NV, USA). MetaScreen software version 2.2.18.0 was employed for data acquisition and instrument control, while ExpeData version 1.8.4 was used for processing raw data. An analysis script detailing all aspects of the data transformation was utilized. Mice with unrestricted access to food and water were subjected to a standard 12 h light/12 h dark cycle, comprising a 16-h acclimation period followed by 24 h of sampling. Ambulatory activity and position were concurrently quantified by the number of disruptions of the infrared beams in three dimensions (XYZ) with a beam spacing of 0.25 cm.
This experiment aimed to evaluate the capacity of BNS808 and rimonabant (used as a positive control) to elicit centrally mediated hyperactivity in mice (a known feature of a brain penetrant compound). For this purpose, male wild-type C57BL/6J mice received a single dose of either the vehicle, rimonabant (10 mg/kg, PO), or BNS808 (1 or 10 mg/kg, PO). The locomotor activity was quantified by measuring the disruptions of infrared beams in two dimensions (XY) for 1 h. Each testing session involved evaluating two groups at a time.

The mark [1] stands for this setting: MDCK-MDR1, Mean recovery % A to B, without GF120918.
Setting [2] is: MDCK-MDR1, Mean recovery % B to A, without GF120918.

Sequence of P-gp (MDR1-MDCKII cells) (P08183 whole entry): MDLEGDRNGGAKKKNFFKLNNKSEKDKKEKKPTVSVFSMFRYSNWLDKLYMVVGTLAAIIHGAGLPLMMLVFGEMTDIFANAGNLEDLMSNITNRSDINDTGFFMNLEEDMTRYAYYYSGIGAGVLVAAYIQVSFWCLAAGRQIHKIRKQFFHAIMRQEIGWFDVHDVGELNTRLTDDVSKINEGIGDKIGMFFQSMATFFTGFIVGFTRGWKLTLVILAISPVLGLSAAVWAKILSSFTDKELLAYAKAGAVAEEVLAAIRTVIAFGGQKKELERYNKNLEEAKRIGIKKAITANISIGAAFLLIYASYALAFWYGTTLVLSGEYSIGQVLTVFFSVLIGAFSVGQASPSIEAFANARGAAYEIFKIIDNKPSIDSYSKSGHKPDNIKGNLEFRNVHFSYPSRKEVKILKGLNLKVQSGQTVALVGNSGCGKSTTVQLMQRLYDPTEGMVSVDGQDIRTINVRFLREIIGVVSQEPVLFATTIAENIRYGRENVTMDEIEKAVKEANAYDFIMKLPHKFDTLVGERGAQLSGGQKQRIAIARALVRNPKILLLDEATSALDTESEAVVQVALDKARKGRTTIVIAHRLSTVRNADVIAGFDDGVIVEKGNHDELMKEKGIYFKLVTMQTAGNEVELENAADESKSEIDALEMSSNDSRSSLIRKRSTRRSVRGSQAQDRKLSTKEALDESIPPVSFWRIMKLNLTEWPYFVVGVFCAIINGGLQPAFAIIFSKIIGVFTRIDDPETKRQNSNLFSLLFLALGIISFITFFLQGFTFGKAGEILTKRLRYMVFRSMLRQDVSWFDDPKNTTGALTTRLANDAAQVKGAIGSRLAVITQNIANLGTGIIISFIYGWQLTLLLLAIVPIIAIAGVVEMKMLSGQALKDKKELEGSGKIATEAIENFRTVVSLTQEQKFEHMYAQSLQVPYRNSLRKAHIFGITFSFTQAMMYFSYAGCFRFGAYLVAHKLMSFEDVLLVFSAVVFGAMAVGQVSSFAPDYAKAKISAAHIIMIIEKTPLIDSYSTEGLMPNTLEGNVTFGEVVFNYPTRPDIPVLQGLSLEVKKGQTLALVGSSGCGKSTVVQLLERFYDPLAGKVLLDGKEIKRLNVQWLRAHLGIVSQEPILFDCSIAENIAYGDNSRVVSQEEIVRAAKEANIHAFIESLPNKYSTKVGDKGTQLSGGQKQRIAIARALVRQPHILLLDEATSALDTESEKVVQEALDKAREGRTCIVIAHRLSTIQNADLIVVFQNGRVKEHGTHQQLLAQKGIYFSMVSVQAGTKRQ
Sequence of P-gp (MDR1) (P08183 whole entry): as above
T1 sequence (P34972 whole entry): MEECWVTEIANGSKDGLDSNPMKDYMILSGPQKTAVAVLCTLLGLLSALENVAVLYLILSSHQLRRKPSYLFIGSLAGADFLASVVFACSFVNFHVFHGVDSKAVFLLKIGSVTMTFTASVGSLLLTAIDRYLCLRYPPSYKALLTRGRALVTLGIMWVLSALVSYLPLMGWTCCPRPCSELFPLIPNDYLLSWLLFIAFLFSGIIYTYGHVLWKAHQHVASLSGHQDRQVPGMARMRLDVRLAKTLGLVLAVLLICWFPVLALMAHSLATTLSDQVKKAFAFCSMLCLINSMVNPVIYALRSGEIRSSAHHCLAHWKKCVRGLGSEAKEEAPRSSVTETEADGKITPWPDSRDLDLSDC

For `Cc1ccc(S(=O)(=O)NC2CCCOc3c2nn(-c2ccccc2Cl)c3-c2ccc(Cl)cc2)cc1` (stereo not drawn) [BNS807], the Ki on human CB2R turned out to be 1650 nM.

What is called Papp A→B is the apparent permeability from the apical to the basolateral side of a cell layer. Lower therefore signals poor permeation. As usually defined, the Papp B→A is the apparent permeability from the basolateral to the apical side of a cell layer. One may read the efflux ratio as a quotient of directional permeabilities that is used to spot active efflux. With `CS(=O)(=O)N1CCC(C(=O)NC2CCCOc3c2nn(-c2ccccc2Cl)c3-c2ccc(Cl)cc2)CC1` (stereo not drawn) [BNS815, N-[2-(2-Chlorophenyl)-3-(4-chlorophenyl)-5,6,7,8-tetrahydrooxepino[3,2-c]pyrazol-8-yl]-1-methylsulfonyl-piperidine-4-carboxamide], the Ki at human CB2R stood at 6310 nM. Further, on P-gp (MDR1), the Papp A→B at 2.5 h came out at 10.1 ×10⁻⁶ cm/s, the Papp B→A at 2.5 h came to 18.9 ×10⁻⁶ cm/s and the efflux ratio at 2.5 h amounted to 1.87. This molecule also gave a recovery at 2.5 h at P-gp (MDR1) (setting [1]) of 75.2%. Moreover, the recovery at 2.5 h on P-gp (MDR1) (setting [2]) amounted to 76.1%. For the same molecule, the recovery at 2.5 h on P-gp (MDR1) (MDCK-MDR1, with GF120918 (concentration not stated), Mean recovery % A to B, with GF120918) was 63.8%. Moreover, the recovery at 2.5 h on P-gp (MDR1) (MDCK-MDR1, with GF120918 (concentration not stated), Mean recovery % B to A, with GF120918) is 77.6%. On P-gp (MDR1-MDCKII cells), the P-gp substrate entry is “yes” and the “Rank Papp” value was “Hi gh”.

Take `O=S(=O)(NC1CCCOc2c1nn(-c1ccccc1Cl)c2-c1ccc(Cl)cc1)c1ccc(Cl)cc1` (stereo not drawn) [BNS808, 4-chloro-N-[2-(2-chlorophenyl)-3-(4-chlorophenyl)-5,6,7,8-tetrahydrooxepino[3,2-c]pyrazol-8-yl]benzenesulfonamide]: the Ki at human CB2R came to 1930 nM. On P-gp (MDR1), the Papp A→B at 2.5 h is 0.26 ×10⁻⁶ cm/s, the Papp B→A at 2.5 h was 1.01 ×10⁻⁶ cm/s and the efflux ratio at 2.5 h was 3.95. Besides, the recovery at 2.5 h on P-gp (MDR1) (MDCK-MDR1, Mean recovery % A to B, with GF120918) came out at 7.87%. Further, the recovery at 2.5 h at P-gp (MDR1) (setting [1]) is 7.9%. At P-gp (MDR1) (MDCK-MDR1, Mean recovery % B to A, with GF120918), this molecule displayed a recovery at 2.5 h of 23.4%. This molecule also displayed a recovery at 2.5 h on P-gp (MDR1) (setting [2]) of 15.3%. Further, the “Papp A:B” value on P-gp (MDR1-MDCKII cells) (A to B, without GF120918) is given as 0.26 ×10^–6 cm/s. Besides, on P-gp (MDR1-MDCKII cells), the P-gp substrate entry is “P-gp substrate and P-gp substrates and yes”; the “Rank Papp” value is “Low”. In addition, the CNS-mediated side effects result in the data set on C57BL/6J mice (1 mg/kg and 10 mg/kg PO, mice) is given as “No CNS-mediated side effects were observed”. Also, the “locomotor activity (centrally mediated hyperactivity)” value in the data set with C57BL/6J mice (single dose 1 or 10 mg/kg PO, male C57Bl/6J mice, 1 h) was “no significant changes in locomotor activity”.

The record behind these values is PMC12067444, “Synthesis and Pharmacological Characterization of Novel Peripheral Cannabinoid-1 Receptor Blockers Based on a Tricyclic Scaffold” (Journal of Medicinal Chemistry, 2025).
